Test results taken from patent US12234223B2, “Phthalazinone compound, and preparation method therefor and medical use thereof” (SHANGHAI JEMINCARE PHARMACEUTICALS CO., LTD, priority 2020, dated 2025).
pIC50: −log10 of the molar value.

Key:
VCaP cells = assay: Inhibitory effect on VCaP cell proliferation (Cell Titer Glo); type: cell-based; conditions: Homo sapiens, 144 h; for pIC50: VCaP cells, 5% FBS and 0.1 nM R1881, 6 days; for Emax: maximum degree of VCaP cell proliferation inhibition, 6 days
Protocol: A tumor cell line Vcap (ATCC Cat. No. CRL-2876) was respectively cultured with DMEM (Gibco Cat. No. 11965-092) medium containing 10% FBS (Gibco Cat. No. 10099-141C). During testing, Vcap cells were replaced with a DMEM culture fluid containing 5% FBS and 0.1 nM R1881 (Sigma Cat. No. R0908). The assay method was as follows:
Vcap cells were seeded to a 384-well plate (Perkin Elmer Cat. No. 6007460) at a cell density of 1200 cells/well and a volume of 20 μL/well; after the cells were incubated overnight in a carbon dioxide incubator (Thermo), the prepared compound solutions with different concentrations were added at a volume of 5 μL/well; meanwhile, a corresponding solvent was provided as a control; after the cells were continuously incubated in the incubator for 6 days, the cell plate and the contents thereof were equilibrated to room temperature; 25 μL of a Cell Titer Glor (Promega Cat. No. G7573) reagent was added to each well; after vibration and uniform mixing, incubation in the dark was performed for 10-30 minutes, and a signal value was detected with Envision microplate reader (PerkinElmer).
A percentage inhibition rate of compound-treated wells was calculated through solvent control wells on the plate, GraphPad prism was used to fit the percentage inhibition rate data corresponding to different concentrations, and IC50 value was calculated by a 4-parameter nonlinear logistic formula.
Emax: a maximum degree of VCaP cell proliferation inhibition. IC50: a compound concentration required to achieve half the maximum degree of VCaP cell proliferation inhibition.

Androgen receptor = biological target: T1, Androgen receptor (Homo sapiens, UniProt P10275); assay: Androgen receptor In-Cell-Western assay (AR degradation in VCaP cells); type: cell-based; conditions: 24 hours treatment; for DC50: concentration for half the maximum degradation degree of AR in VCaP cells; for Dmax: maximum degradation degree of AR in VCaP cells
T1 construct: Dmax: a maximum degradation degree of AR in VCaP cells; endogenous in cells; host or cells: VCaP cells
T1 sequence (P10275 1-920): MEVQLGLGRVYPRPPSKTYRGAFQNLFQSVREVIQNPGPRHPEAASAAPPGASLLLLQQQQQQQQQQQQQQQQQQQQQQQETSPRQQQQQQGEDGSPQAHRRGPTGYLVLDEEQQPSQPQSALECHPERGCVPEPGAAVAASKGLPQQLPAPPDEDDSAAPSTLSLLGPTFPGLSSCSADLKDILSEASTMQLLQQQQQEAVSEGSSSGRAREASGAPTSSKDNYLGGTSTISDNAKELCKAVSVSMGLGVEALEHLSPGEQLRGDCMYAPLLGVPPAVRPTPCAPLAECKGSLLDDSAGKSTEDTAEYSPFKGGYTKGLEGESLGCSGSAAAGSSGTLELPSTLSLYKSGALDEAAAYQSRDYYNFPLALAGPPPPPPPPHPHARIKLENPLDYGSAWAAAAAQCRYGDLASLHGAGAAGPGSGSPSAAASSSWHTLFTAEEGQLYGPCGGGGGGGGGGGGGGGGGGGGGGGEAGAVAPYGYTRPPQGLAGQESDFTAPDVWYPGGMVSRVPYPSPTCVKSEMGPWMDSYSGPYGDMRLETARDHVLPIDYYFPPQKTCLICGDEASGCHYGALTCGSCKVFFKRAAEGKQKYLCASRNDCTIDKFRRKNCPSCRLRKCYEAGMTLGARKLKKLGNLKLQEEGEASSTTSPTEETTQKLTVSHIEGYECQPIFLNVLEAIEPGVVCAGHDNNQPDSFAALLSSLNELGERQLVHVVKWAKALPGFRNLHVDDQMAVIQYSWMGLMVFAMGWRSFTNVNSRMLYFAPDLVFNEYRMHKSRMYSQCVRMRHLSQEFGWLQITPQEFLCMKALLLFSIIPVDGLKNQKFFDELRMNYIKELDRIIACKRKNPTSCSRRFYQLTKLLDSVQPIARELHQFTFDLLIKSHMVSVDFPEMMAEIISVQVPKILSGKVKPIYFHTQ
Protocol: This assay evaluated compound performance in VCap cells. An intracellular androgen receptor was assayed by In-Cell-Western according to the assay procedure described below.
In a 96-well cell culture plate (Corning 3599) pretreated by poly-D-Lysin, Vcap cells were seeded to a Vcap cell assay medium [phenol red containing DMEM (Gibco Cat. No.: 11995065); fetal bovine serum FBS (Gibco Cat. No.: 10099141C)] at a volume of 100 μL/well and a cell density of 50,000 cells/well. Cells were cultured for at least two days. • 1. First, cells were treated with a compound. The compound was subjected to a gradient dilution by using DMSO and a cell culture medium, so that DMSO contained in the cell culture plate was diluted to 0.5%: a polypropylene plate was used according to the following protocol: • (1) (i) A 200× stock solution plate was prepared in DMSO; (ii) a 10 mM stock solution was diluted at 1:4 (10 μL stock solution+40 μL DMSO=2000 uM) with DMSO to enter row 2; (iii) a 1:4 (10 μL protac+40 μL DMSO) gradient dilution was performed from row 2 to row 9, row 1 was reserved for a 2000 uM reference compound and row 10 was reserved for DMSO. (iv) There were 8 concentrations (the final concentrations on the 200× plate was 2000 uM, 400 uM, 80 uM, etc.) in total. (2) (i) A 3× stock solution was prepared in the medium; (ii) 3 μL of the 200× stock solution was transferred to 197 μL of the medium (by a 12-channel pipette, from row 1 to row 10), i.e. a 3× stock solution plate. (iii) Uniform mixing was performed for the stock solution plate. (3) (i) The medium of Vcap cells was replaced with a fresh medium, with the medium volume of 100 μL. (ii) The uniformly-mixed 3× stock solution was transferred to the cell culture plate (by the 12-channel pipette, 50 μL of the stock solution was transferred from row 1 to row 10). (iii) The cells were cultured for 24 hours. • 2. The expression level of the intracellular androgen receptor after compound treatment was detected, and assay was performed according to the following method. • (1) (i) An equal volume of 8% paraformaldehyde was added to the cell culture plate for cell fixation. A fixative solution in the cell plate was discarded, and the cell plate was washed three times with PBS. (ii) A Triton solution was prepared (the stock solution was diluted at 1:1000). The solution in the cell plate was discarded, and a volume of 200 μL of a Triton diluent was added to each well. (iii) A 2× blocking solution was prepared (a 10× blocking stock solution was diluted at 1:4). The solution in the cell plate was discarded, and a volume of 100 μL of the 2× blocking solution was added to each well. (iv) A primary antibody solution (Androgen receptor Rabbit mAb, Cell Signaling Technology Cat. No.: 5153; 1:1000 dilution) was prepared. The solution in the cell plate was discarded, a volume of 100 μL of a primary antibody diluent was added to each well, and incubation was performed at 4 degrees overnight. (v) The primary antibody solution was discarded, and the cell plate was washed with 1× Wash buffer (Wash buffer in the present application means a washing buffer solution). (vi) A secondary antibody solution (Goat anti Rabbit IgG (H+L) Secondary Antibody, HRP, Thermo Cat. No.: 31460; 1:5000 dilution) was prepared, and a volume of 100 μL of a secondary antibody diluent was added to each well for incubation. (vii) The secondary antibody solution in the cell plate was discarded, and the cell plate was washed with 1× Wash buffer. (viii) A TMB chromogenic solution (BD Cat. No.: 550534) was prepared, and a volume of 100 μL of the chromogenic solution was added to each well. (ix) A volume of 50 μL of a stop solution (BD Cat. No.: 550534) was added to each well. (x) Absorption values at OD 450 nm and 570 nm were read by EnVision. (2) (i) Normalized analysis was performed for the number of cells in each well. The solution in the cell plate was discarded, and the cell plate was washed three times with wash buffer. […]

pIC50 (VCaP cells) | DC50 (Androgen receptor) [µM] | Dmax (Androgen receptor) [%] | SMILES | Emax (VCaP cells) [%]
7.35 | 0.032 | 109 | CC1(C)[C@H](NC(=O)c2cnc(N3CCC(CN4CCN(c5ccc6c(=O)n(C7CCC(=O)NC7=O)ncc6c5)CC4)CC3)c(F)c2)C(C)(C)[C@H]1Oc1ccc(C#N)c(Cl)c1 (some centres unmarked) [Compound 26] | 60
7.48 | 0.0072 | 101 | CC1(C)[C@H](NC(=O)c2ccc(N3CCC(CN4CCN(c5ccc6c(=O)n([C@@H]7CCC(=O)NC7=O)ncc6c5)CC4)CC3)cc2)C(C)(C)[C@H]1Oc1ccc(C#N)c(Cl)c1 [Compound 28B] | 71
